{
  "source": "the NIST ThermoML archive (doi:10.1021/je200371n)",
  "details": "Gas",
  "note": "± gives the expanded uncertainty stated by the source.",
  "data": [
    {"smiles": "S", "note": "[hydrogen sulfide]", "values": [
      {"measurement": "viscosity", "setting": "291.61 K, Mass density=0.74 kg/m3", "value": "0.01186 ± 0.00034", "unit": "mPa·s"},
      {"measurement": "viscosity", "setting": "292.3 K, Mass density=0.74 kg/m3", "value": "0.01186 ± 0.00034", "unit": "mPa·s"},
      {"measurement": "viscosity", "setting": "292.46 K, Mass density=0.74 kg/m3", "value": "0.01187 ± 0.00034", "unit": "mPa·s"},
      {"measurement": "viscosity", "setting": "292.77 K, Mass density=0.74 kg/m3", "value": "0.01188 ± 0.00034", "unit": "mPa·s"},
      {"measurement": "viscosity", "setting": "296.89 K, Mass density=0.74 kg/m3", "value": "0.01207 ± 0.00034", "unit": "mPa·s"},
      {"measurement": "viscosity", "setting": "297.01 K, Mass density=0.74 kg/m3", "value": "0.01206 ± 0.00034", "unit": "mPa·s"},
      {"measurement": "viscosity", "setting": "323.94 K, Mass density=0.74 kg/m3", "value": "0.01319 ± 0.00035", "unit": "mPa·s"},
      {"measurement": "viscosity", "setting": "323.96 K, Mass density=0.74 kg/m3", "value": "0.01318 ± 0.00035", "unit": "mPa·s"},
      {"measurement": "viscosity", "setting": "350.47 K, Mass density=0.74 kg/m3", "value": "0.01429 ± 0.00037", "unit": "mPa·s"},
      {"measurement": "viscosity", "setting": "350.59 K, Mass density=0.74 kg/m3", "value": "0.0143 ± 0.00037", "unit": "mPa·s"},
      {"measurement": "viscosity", "setting": "378.01 K, Mass density=0.74 kg/m3", "value": "0.01543 ± 0.00038", "unit": "mPa·s"},
      {"measurement": "viscosity", "setting": "378.19 K, Mass density=0.74 kg/m3", "value": "0.01544 ± 0.00038", "unit": "mPa·s"},
      {"measurement": "viscosity", "setting": "405.76 K, Mass density=0.74 kg/m3", "value": "0.01656 ± 0.00039", "unit": "mPa·s"},
      {"measurement": "viscosity", "setting": "405.86 K, Mass density=0.74 kg/m3", "value": "0.01657 ± 0.00039", "unit": "mPa·s"},
      {"measurement": "viscosity", "setting": "433.66 K, Mass density=0.74 kg/m3", "value": "0.01769 ± 0.00041", "unit": "mPa·s"},
      {"measurement": "viscosity", "setting": "433.81 K, Mass density=0.74 kg/m3", "value": "0.0177 ± 0.00041", "unit": "mPa·s"},
      {"measurement": "viscosity", "setting": "461.72 K, Mass density=0.74 kg/m3", "value": "0.01881 ± 0.00042", "unit": "mPa·s"},
      {"measurement": "viscosity", "setting": "461.92 K, Mass density=0.74 kg/m3", "value": "0.01882 ± 0.00042", "unit": "mPa·s"},
      {"measurement": "viscosity", "setting": "490.09 K, Mass density=0.74 kg/m3", "value": "0.01993 ± 0.00043", "unit": "mPa·s"},
      {"measurement": "viscosity", "setting": "490.2 K, Mass density=0.74 kg/m3", "value": "0.01992 ± 0.00043", "unit": "mPa·s"},
      {"measurement": "viscosity", "setting": "518.68 K, Mass density=0.74 kg/m3", "value": "0.021 ± 0.00043", "unit": "mPa·s"},
      {"measurement": "viscosity", "setting": "518.75 K, Mass density=0.74 kg/m3", "value": "0.021 ± 0.00043", "unit": "mPa·s"},
      {"measurement": "viscosity", "setting": "542.48 K, Mass density=0.74 kg/m3", "value": "0.0219 ± 0.00046", "unit": "mPa·s"},
      {"measurement": "viscosity", "setting": "542.61 K, Mass density=0.74 kg/m3", "value": "0.0219 ± 0.00046", "unit": "mPa·s"},
      {"measurement": "viscosity", "setting": "565.19 K, Mass density=0.74 kg/m3", "value": "0.02274 ± 0.00046", "unit": "mPa·s"},
      {"measurement": "viscosity", "setting": "565.29 K, Mass density=0.74 kg/m3", "value": "0.02275 ± 0.00046", "unit": "mPa·s"},
      {"measurement": "viscosity", "setting": "593.95 K, Mass density=0.74 kg/m3", "value": "0.02379 ± 0.00047", "unit": "mPa·s"},
      {"measurement": "viscosity", "setting": "594.02 K, Mass density=0.74 kg/m3", "value": "0.02379 ± 0.00047", "unit": "mPa·s"},
      {"measurement": "viscosity", "setting": "623.07 K, Mass density=0.74 kg/m3", "value": "0.02482 ± 0.00048", "unit": "mPa·s"},
      {"measurement": "viscosity", "setting": "623.19 K, Mass density=0.74 kg/m3", "value": "0.02482 ± 0.00048", "unit": "mPa·s"},
      {"measurement": "viscosity", "setting": "652.3 K, Mass density=0.74 kg/m3", "value": "0.02584 ± 0.0005", "unit": "mPa·s"},
      {"measurement": "viscosity", "setting": "652.32 K, Mass density=0.74 kg/m3", "value": "0.02584 ± 0.0005", "unit": "mPa·s"},
      {"measurement": "viscosity", "setting": "681.36 K, Mass density=0.74 kg/m3", "value": "0.02682 ± 0.00051", "unit": "mPa·s"},
      {"measurement": "viscosity", "setting": "682.03 K, Mass density=0.74 kg/m3", "value": "0.02684 ± 0.00051", "unit": "mPa·s"}
    ]},
    {"smiles": "C", "note": "[methane]", "values": [
      {"measurement": "viscosity", "setting": "289.05 K, Mass density=0.498 kg/m3", "value": "0.01081 ± 0.00023", "unit": "mPa·s"},
      {"measurement": "viscosity", "setting": "290.41 K, Mass density=0.498 kg/m3", "value": "0.01083 ± 0.00023", "unit": "mPa·s"},
      {"measurement": "viscosity", "setting": "291.93 K, Mass density=0.344 kg/m3", "value": "0.01089 ± 0.00023", "unit": "mPa·s"},
      {"measurement": "viscosity", "setting": "292.96 K, Mass density=0.344 kg/m3", "value": "0.01092 ± 0.00023", "unit": "mPa·s"},
      {"measurement": "viscosity", "setting": "296.43 K, Mass density=0.498 kg/m3", "value": "0.01103 ± 0.00023", "unit": "mPa·s"},
      {"measurement": "viscosity", "setting": "296.57 K, Mass density=0.498 kg/m3", "value": "0.01105 ± 0.00023", "unit": "mPa·s"},
      {"measurement": "viscosity", "setting": "297.08 K, Mass density=0.344 kg/m3", "value": "0.01106 ± 0.00023", "unit": "mPa·s"},
      {"measurement": "viscosity", "setting": "323.43 K, Mass density=0.498 kg/m3", "value": "0.01189 ± 0.00024", "unit": "mPa·s"},
      {"measurement": "viscosity", "setting": "323.86 K, Mass density=0.344 kg/m3", "value": "0.01191 ± 0.00024", "unit": "mPa·s"},
      {"measurement": "viscosity", "setting": "350.55 K, Mass density=0.344 kg/m3", "value": "0.01273 ± 0.00026", "unit": "mPa·s"},
      {"measurement": "viscosity", "setting": "350.64 K, Mass density=0.498 kg/m3", "value": "0.01272 ± 0.00026", "unit": "mPa·s"},
      {"measurement": "viscosity", "setting": "378.15 K, Mass density=0.344 kg/m3", "value": "0.01356 ± 0.00026", "unit": "mPa·s"},
      {"measurement": "viscosity", "setting": "378.25 K, Mass density=0.498 kg/m3", "value": "0.01355 ± 0.00026", "unit": "mPa·s"},
      {"measurement": "viscosity", "setting": "405.88 K, Mass density=0.344 kg/m3", "value": "0.01436 ± 0.00027", "unit": "mPa·s"},
      {"measurement": "viscosity", "setting": "406.03 K, Mass density=0.498 kg/m3", "value": "0.01436 ± 0.00027", "unit": "mPa·s"},
      {"measurement": "viscosity", "setting": "433.83 K, Mass density=0.344 kg/m3", "value": "0.01514 ± 0.00028", "unit": "mPa·s"},
      {"measurement": "viscosity", "setting": "434.02 K, Mass density=0.498 kg/m3", "value": "0.01514 ± 0.00028", "unit": "mPa·s"},
      {"measurement": "viscosity", "setting": "461.75 K, Mass density=0.498 kg/m3", "value": "0.0159 ± 0.00029", "unit": "mPa·s"},
      {"measurement": "viscosity", "setting": "461.85 K, Mass density=0.344 kg/m3", "value": "0.01591 ± 0.00029", "unit": "mPa·s"},
      {"measurement": "viscosity", "setting": "490.13 K, Mass density=0.344 kg/m3", "value": "0.01666 ± 0.00029", "unit": "mPa·s"},
      {"measurement": "viscosity", "setting": "490.15 K, Mass density=0.498 kg/m3", "value": "0.01665 ± 0.00029", "unit": "mPa·s"},
      {"measurement": "viscosity", "setting": "518.8 K, Mass density=0.498 kg/m3", "value": "0.0174 ± 0.0003", "unit": "mPa·s"},
      {"measurement": "viscosity", "setting": "518.83 K, Mass density=0.344 kg/m3", "value": "0.01739 ± 0.0003", "unit": "mPa·s"},
      {"measurement": "viscosity", "setting": "542.36 K, Mass density=0.498 kg/m3", "value": "0.01798 ± 0.00031", "unit": "mPa·s"},
      {"measurement": "viscosity", "setting": "542.6 K, Mass density=0.344 kg/m3", "value": "0.01799 ± 0.00031", "unit": "mPa·s"},
      {"measurement": "viscosity", "setting": "565.1 K, Mass density=0.498 kg/m3", "value": "0.01854 ± 0.00032", "unit": "mPa·s"},
      {"measurement": "viscosity", "setting": "565.38 K, Mass density=0.344 kg/m3", "value": "0.01856 ± 0.00032", "unit": "mPa·s"},
      {"measurement": "viscosity", "setting": "593.84 K, Mass density=0.498 kg/m3", "value": "0.01924 ± 0.00032", "unit": "mPa·s"},
      {"measurement": "viscosity", "setting": "594.08 K, Mass density=0.344 kg/m3", "value": "0.01925 ± 0.00032", "unit": "mPa·s"},
      {"measurement": "viscosity", "setting": "623.05 K, Mass density=0.498 kg/m3", "value": "0.01993 ± 0.00034", "unit": "mPa·s"},
      {"measurement": "viscosity", "setting": "623.33 K, Mass density=0.344 kg/m3", "value": "0.01995 ± 0.00033", "unit": "mPa·s"},
      {"measurement": "viscosity", "setting": "652.07 K, Mass density=0.498 kg/m3", "value": "0.02061 ± 0.00036", "unit": "mPa·s"},
      {"measurement": "viscosity", "setting": "652.41 K, Mass density=0.344 kg/m3", "value": "0.02062 ± 0.00034", "unit": "mPa·s"},
      {"measurement": "viscosity", "setting": "681.93 K, Mass density=0.498 kg/m3", "value": "0.02127 ± 0.00035", "unit": "mPa·s"},
      {"measurement": "viscosity", "setting": "682.14 K, Mass density=0.344 kg/m3", "value": "0.0213 ± 0.00035", "unit": "mPa·s"}
    ]}
  ]
}
